Data taken from PMC8841757, “Direct Inhibition of GSDMD by PEITC Reduces Hepatocyte Pyroptosis and Alleviates Acute Liver Injury in Mice” (Frontiers in Immunology, 2022).

Columns and labels:
human GSDMD WT-EGFP [1] = target: T1, human GSDMD WT-EGFP (Homo sapiens, UniProt P57764); test: cellular thermal shift assay (CETSA), western blot; assay type: cell-based; details: transfected HEK293T cells, 2 h
T1 construct: GSDMD WT fused to EGFP, transiently expressed in HEK293T cells, cell lysate (MST) or cells (CETSA)
T1 sequence (P57764 1-484): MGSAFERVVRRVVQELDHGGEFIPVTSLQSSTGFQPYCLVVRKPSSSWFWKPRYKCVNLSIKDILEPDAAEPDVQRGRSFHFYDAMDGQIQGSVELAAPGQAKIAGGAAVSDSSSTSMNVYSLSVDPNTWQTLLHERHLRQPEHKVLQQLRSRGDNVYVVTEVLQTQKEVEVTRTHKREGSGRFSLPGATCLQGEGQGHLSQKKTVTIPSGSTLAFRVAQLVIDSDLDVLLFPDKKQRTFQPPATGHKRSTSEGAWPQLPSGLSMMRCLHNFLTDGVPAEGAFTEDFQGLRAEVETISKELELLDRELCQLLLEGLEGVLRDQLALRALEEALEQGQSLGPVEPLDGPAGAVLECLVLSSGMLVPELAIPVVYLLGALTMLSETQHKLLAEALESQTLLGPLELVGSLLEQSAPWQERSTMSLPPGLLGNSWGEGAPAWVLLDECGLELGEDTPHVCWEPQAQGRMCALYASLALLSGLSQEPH

human GSDMD WT-EGFP [2] = target: T1, human GSDMD WT-EGFP; test: microscale thermophoresis in cell lysate; assay type: biochemical
mouse GSDMD WT-EGFP = target: T2, mouse GSDMD WT-EGFP (Mus musculus, UniProt Q9D8T2); test: microscale thermophoresis in cell lysate; assay type: biochemical
T2 construct: GSDMD WT fused to EGFP, transiently expressed in AML12 cells, cell lysate (MST); CETSA in AML12 cells with no transfection stated
T2 sequence (Q9D8T2 1-487): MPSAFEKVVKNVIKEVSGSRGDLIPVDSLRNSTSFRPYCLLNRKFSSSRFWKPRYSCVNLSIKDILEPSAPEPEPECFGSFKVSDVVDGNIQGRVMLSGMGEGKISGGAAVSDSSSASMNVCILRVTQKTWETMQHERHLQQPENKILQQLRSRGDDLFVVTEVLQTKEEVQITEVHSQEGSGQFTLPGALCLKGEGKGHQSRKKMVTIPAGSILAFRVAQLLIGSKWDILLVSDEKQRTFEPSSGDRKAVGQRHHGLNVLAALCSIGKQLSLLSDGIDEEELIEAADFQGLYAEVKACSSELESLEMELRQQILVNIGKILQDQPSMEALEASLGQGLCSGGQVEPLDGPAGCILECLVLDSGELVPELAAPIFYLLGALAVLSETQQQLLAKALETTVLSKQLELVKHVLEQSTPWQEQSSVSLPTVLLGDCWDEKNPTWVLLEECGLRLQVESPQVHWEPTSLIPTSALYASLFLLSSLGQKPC

| Compound | thermal stability (CETSA) (human GSDMD WT-EGFP [1]; 3 μM NSA) | Kd (human GSDMD WT-EGFP [2]) | Kd (mouse GSDMD WT-EGFP) | thermal stability (CETSA) (human GSDMD WT-EGFP [1]; 3 μM PEITC) |
| --- | --- | --- | --- | --- |
| COc1nccnc1NS(=O)(=O)c1ccc(NC(=O)/C=C/c2ccc([N+](=O)[O-])s2)cc1 [NSA] | NSA enhanced the thermal stability of human WT-GSDMD | 11.2 µM | – | – |
| S=C=NCCc1ccccc1 [PEITC] | – | 0.23 µM | 0.308 µM | PEITC reduced the thermal stability of human WT-GSDMD |
